Structures are written as SMILES. Substitutions are numbered along the chain they refer to. Like-named read-outs stand apart in the source and are kept apart here.

Experimental findings from patent US20250228873A1, “C25 R AND S ISOMERS OF AMINOSTEROLS AND METHODS OF MAKING AND USING THE SAME” (Enterin, Inc., priority 2022, published 2025) are described below.

One assay deals with T1, PTPN6/SHP1 (Homo sapiens, UniProt P29350).
T1 construct: purchased Recation Biology Inc
Nature of the assay: Phosphatase panel, DiFMUP fluorescence assay. It is filed as biochemical.

The target of the next assay is T2, PTPN12/PTP-PEST (Homo sapiens, UniProt Q05209).
T2 construct: purchased Recation Biology Inc
T2 sequence (Q05209 1-780): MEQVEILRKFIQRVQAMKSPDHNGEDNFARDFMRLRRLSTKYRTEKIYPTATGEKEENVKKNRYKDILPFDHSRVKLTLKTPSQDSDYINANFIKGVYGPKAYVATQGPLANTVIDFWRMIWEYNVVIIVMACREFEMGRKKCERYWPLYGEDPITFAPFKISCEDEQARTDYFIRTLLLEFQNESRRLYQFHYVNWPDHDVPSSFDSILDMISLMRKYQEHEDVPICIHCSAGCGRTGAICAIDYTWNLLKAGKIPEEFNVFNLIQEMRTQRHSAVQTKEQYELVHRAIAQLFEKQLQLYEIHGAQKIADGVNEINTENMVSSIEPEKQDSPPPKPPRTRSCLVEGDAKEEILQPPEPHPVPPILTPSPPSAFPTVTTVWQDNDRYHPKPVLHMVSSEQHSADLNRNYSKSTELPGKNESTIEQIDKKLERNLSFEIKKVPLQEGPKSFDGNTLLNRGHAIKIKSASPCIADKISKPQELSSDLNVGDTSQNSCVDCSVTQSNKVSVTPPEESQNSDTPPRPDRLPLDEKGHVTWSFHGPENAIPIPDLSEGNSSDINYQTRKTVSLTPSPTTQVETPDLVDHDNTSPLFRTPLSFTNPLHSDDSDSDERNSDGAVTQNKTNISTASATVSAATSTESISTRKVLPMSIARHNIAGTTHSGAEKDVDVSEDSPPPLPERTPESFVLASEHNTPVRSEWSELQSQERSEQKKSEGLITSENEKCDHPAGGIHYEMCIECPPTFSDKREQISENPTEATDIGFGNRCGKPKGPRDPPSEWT
Put plainly: Phosphatase panel, DiFMUP fluorescence assay. It is filed as biochemical.

A further assay concerns the target T3, PTPN11/SHP2-FL (Homo sapiens, UniProt Q06124).
T3 sequence (Q06124 2-597 isoform Q06124-1): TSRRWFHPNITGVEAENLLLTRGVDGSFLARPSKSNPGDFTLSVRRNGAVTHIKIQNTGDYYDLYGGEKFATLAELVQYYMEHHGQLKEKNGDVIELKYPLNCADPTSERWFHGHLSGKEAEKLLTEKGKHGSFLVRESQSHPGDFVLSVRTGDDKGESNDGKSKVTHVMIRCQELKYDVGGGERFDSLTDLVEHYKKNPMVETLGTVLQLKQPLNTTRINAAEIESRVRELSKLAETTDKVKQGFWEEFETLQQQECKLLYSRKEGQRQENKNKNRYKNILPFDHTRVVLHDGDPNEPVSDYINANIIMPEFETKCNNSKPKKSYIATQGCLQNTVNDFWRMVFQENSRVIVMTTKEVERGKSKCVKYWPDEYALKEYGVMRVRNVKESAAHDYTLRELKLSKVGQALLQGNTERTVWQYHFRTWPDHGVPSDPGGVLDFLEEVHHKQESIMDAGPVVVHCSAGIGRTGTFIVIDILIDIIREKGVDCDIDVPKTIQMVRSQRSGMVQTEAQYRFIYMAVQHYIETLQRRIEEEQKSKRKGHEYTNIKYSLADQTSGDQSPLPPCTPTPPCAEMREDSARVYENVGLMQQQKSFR
Nature of the assay: Phosphatase panel, DiFMUP assay with activating peptide.

Another assay has as its target T4, PTPN11/SHP2-FL(E76K) (Homo sapiens, UniProt Q06124, E76K).
T4 sequence (Q06124 2-597 isoform Q06124-1 E76K): T3 sequence (Q06124 2-597 isoform Q06124-1) with E75K
Nature of the assay: Phosphatase panel, DiFMUP assay, E76K mutant.

Setting [1] is: Table 19A, read-out: inhibitory activity PTPN6/SHP1.
Setting [2] is: Table 5C, read-out: Compound IC50 (M) PTPN12/PTP-PEST.
Setting [3] is: Table 19B, read-out: inhibitory activity PTPN12/PTP-PEST.

T1 sequence (P29350 whole entry): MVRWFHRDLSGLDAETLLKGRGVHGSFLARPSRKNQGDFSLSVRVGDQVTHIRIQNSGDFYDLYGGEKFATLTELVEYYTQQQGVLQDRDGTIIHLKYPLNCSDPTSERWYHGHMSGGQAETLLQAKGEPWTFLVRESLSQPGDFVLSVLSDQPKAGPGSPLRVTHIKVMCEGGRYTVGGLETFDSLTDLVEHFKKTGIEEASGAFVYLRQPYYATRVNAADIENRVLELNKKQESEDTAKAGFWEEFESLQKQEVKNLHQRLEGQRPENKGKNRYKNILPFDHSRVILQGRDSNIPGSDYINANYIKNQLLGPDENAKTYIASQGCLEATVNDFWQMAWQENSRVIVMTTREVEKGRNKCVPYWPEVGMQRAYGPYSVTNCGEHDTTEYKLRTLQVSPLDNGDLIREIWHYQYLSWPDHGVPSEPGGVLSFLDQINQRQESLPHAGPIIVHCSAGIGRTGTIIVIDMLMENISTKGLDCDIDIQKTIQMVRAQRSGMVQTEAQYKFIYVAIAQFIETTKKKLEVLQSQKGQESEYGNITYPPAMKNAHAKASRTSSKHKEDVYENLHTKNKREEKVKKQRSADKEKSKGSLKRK

For `CC(CCC[C@@H](C)[C@H]1CCC2C3C(CC(O)[C@@]21C)[C@@]1(C)CC[C@H](NCCCNCCCCN)C[C@@H]1C[C@H]3O)C(=O)O` (single isomer, unassigned) [ENT-05], the IC50 at PTPN6/SHP1 (Table 18A, read-out: inhibitory activity PTPN6/SHP1) was > 0.0001 M; at PTPN12/PTP-PEST (Table 18B, read-out: inhibitory activity PTPN12/PTP-PEST), > 0.0001 M; against PTPN11/SHP2-FL, 0.976 µM; on PTPN11/SHP2-FL(E76K), 0.043 µM.

In the case of `CC(CCC[C@@H](C)[C@H]1CCC2C3C(CC[C@@]21C)[C@@]1(C)CC[C@H](NCCCNCCCCNCCCN)C[C@@H]1C[C@H]3O)C(=O)O` (single isomer, unassigned) [ENT-03], the “activity at PTPN6” value on PTPN6/SHP1 was “inactive”. In addition, the IC50 on PTPN6/SHP1 (Table 5B, read-out: Compound IC50 (M) PTPN6/SHP1) was > 0.0001 M; at PTPN6/SHP1 (setting [1]) it was > 0.0001 M; at PTPN12/PTP-PEST (setting [2]) it was 8.61e-07 M; at PTPN12/PTP-PEST (setting [3]) it was 8.61e-07 M; against PTPN11/SHP2-FL, 1.42 µM; against PTPN11/SHP2-FL(E76K), 0.294 µM.

For the compound `CC(CCC[C@@H](C)[C@H]1CCC2C3C(CC[C@@]21C)[C@@]1(C)CC[C@H](NCCCNCCCCN)C[C@@H]1C[C@H]3O)C(=O)O` (single isomer, unassigned) [ENT-06], the IC50 is > 0.0001 M at PTPN6/SHP1 (setting [1]), 8.62e-07 M at PTPN12/PTP-PEST (setting [3]), 3.17 µM at PTPN11/SHP2-FL and 0.345 µM against PTPN11/SHP2-FL(E76K).

As to `CC(C)[C@@H](CC[C@@H](C)[C@H]1CC[C@H]2[C@@H]3[C@H](O)C[C@H]4C[C@@H](NCCCNCCCCNCCCN)CC[C@]4(C)[C@H]3CC[C@]12C)OS(=O)(=O)O` (single isomer, unassigned) [ENT-02 (MSI-1436), trodusquemine], the IC50 at PTPN12/PTP-PEST (setting [2]) was found to be 1.72e-06 M; at PTPN11/SHP2-FL, 0.752 µM; against PTPN11/SHP2-FL(E76K), 0.292 µM.
